{"source": "patent US9096832B2", "about": "“Differentiation of human embryonic stem cells” (LifeScan, Inc., priority 2007, dated 2015)", "key": {"[1]": {"tested_on": "human embryonic stem cell line H9", "test": "Cytokine array (RayBiotech) of cell lysates and conditioned media, Activin A +/- Wnt3a (Table VII)", "format": "cell-based", "set-up": "Angiogenin / BDNF / BMP-4 / BMP-6 / CK beta 8-1 / Eotaxin-3 / Flt-3 Ligand / Fractalkine / GCP-2 / GDNF / GM-CSF / I-309 / IFN-gamma / IGFBP-1 / IGFBP-2 / IGFBP-4 / IL-10 / IL-13 / IL-15 / IL-1alpha / IL-1beta / IL-1ra / IL-3 / IL-5 / Leptin / MCP-1 / MIP-1-delta / NT-3 / RANTES / SCF / TGF-beta 1 / TNF-beta / Acrp30 / AgRP / AxI / bFGF: unit not given here", "conditions": "H9 day 5, samples 1,2", "method": "At passage 54, cells were differentiated in the presence of 100 ng/mlActivinA+/−10 ng/mlWnt3a for 2 days in 0.5% FBS DMEM/F12. […]\nCell lysates were prepared from cells of each treatment group, with a mammalian cell lysis kit (Sigma-Aldrich,MO). Conditioned media from each treatment group was collected and concentrated. Cytokine array analysis was completed using Cytokine Array panels provided by RayBiotech, GA (http://www.raybiotech.com/). […] For each panel, positive and negative controls are also included."}, "[2]": {"tested_on": "human embryonic stem cell line H9", "test": "Cells from […] differentiated on MEFs: role of Wnt-3a (real-time PCR, FACS)", "format": "cell-based", "method": "Cells from the human embryonic stem cell line H9 cultured on […]™ for at least five passages were seeded onto MEF feeders in ES media.\nAt day 3 and 5, the cultures were analyzed by real time PCR for SOX-17, SOX-7, Alpha-fetal protein (AFP), CXCR4, Brychyury (Bry), gooscecoid (GSC), HNF-3 beta, GATA4, hTERT and Oct4. AFP and SOX-7 are regarded as visceral endoderm markers while GATA4, HNF-3beta and SOX-17 represent definite endoderm markers and GSC, Bry, and CXCR4 represent markers of primitive streak. hTERT and Oct-4 are markers for self renewal and pluripotency respectively. FACS analysis was also performed at day 3 and 5."}}, "note": "Several values for one entry are separate records, joined by “and”; a condition that tells them apart may be missing. Identical values can stand only once."}
{"substance": "Activin A: activin A (a member of the TGFβ superfamily), R&D Systems; 'w/o wnt' in Table VII = 100 ng/ml Activin A without Wnt3a", "values": [{"measurement": "Acrp30", "setting": "[1]; Cell conditioned media", "value": "1,797.52 and 1,319.88"}, {"measurement": "AgRP", "setting": "[1]; Cell conditioned media", "value": "378.17 and 195.90"}, {"measurement": "Amphiregulin", "setting": "[1]; Cell conditioned media", "value": "250.52 and 151.01"}, {"measurement": "Angiogenin", "setting": "[1]; Cell conditioned media", "value": "13,726.35 and 11,749.55"}, {"measurement": "Angiopoietin-2", "setting": "[1]; Cell conditioned media", "value": "655.82 and 632.60"}, {"measurement": "AxI", "setting": "[1]; Cell conditioned media", "value": "401.31 and 324.05"}, {"measurement": "BDNF", "setting": "[1]; Cell conditioned media", "value": "689.22 and 563.39"}, {"measurement": "BMP-4", "setting": "[1]; Cell conditioned media", "value": "583.40 and 541.83"}, {"measurement": "BMP-6", "setting": "[1]; Cell conditioned media", "value": "354.91 and 355.28"}, {"measurement": "CK beta 8-1", "setting": "[1]; Cell conditioned media", "value": "17.79 and 25.31"}, {"measurement": "CNTF", "setting": "[1]; Cell conditioned media", "value": "282.81 and 211.86"}, {"measurement": "EGF", "setting": "[1]; Cell conditioned media", "value": "1,681.85 and 1,406.12"}, {"measurement": "Eotaxin", "setting": "[1]; Cell conditioned media", "value": "207.89 and 199.67"}, {"measurement": "Eotaxin-2", "setting": "[1]; Cell conditioned media", "value": "890.56 and 744.31"}, {"measurement": "Eotaxin-3", "setting": "[1]; Cell conditioned media", "value": "975.77 and 665.56"}, {"measurement": "FGF-7", "setting": "[1]; Cell conditioned media", "value": "449.49 and 352.47"}, {"measurement": "Flt-3 Ligand", "setting": "[1]; Cell conditioned media", "value": "315.58 and 277.47"}, {"measurement": "Fractalkine", "setting": "[1]; Cell conditioned media", "value": "120.80 and 145.30"}, {"measurement": "GCP-2", "setting": "[1]; Cell conditioned media", "value": "203.21 and 166.86"}, {"measurement": "GDNF", "setting": "[1]; Cell conditioned media", "value": "176.99 and 194.98"}, {"measurement": "GM-CSF", "setting": "[1]; Cell conditioned media", "value": "777.25 and 722.75"}, {"measurement": "IFN-gamma", "setting": "[1]; Cell conditioned media", "value": "283.74 and 559.64"}, {"measurement": "IGF-I", "setting": "[1]; Cell conditioned media", "value": "88.96 and 148.11"}, {"measurement": "IGFBP-1", "setting": "[1]; Cell conditioned media", "value": "33.71 and 24.37"}, {"measurement": "IGFBP-2", "setting": "[1]; Cell conditioned media", "value": "27,656.85 and 28,473.95"}, {"measurement": "IGFBP-4", "setting": "[1]; Cell conditioned media", "value": "10,091.09 and 6,029.45"}, {"measurement": "IL-1alpha", "setting": "[1]; Cell conditioned media", "value": "10,155.70 and 5,842.90"}, {"measurement": "IL-1beta", "setting": "[1]; Cell conditioned media", "value": "117.99 and 75.93"}, {"measurement": "IL-1ra", "setting": "[1]; Cell conditioned media", "value": "142.34 and 93.74"}, {"measurement": "IL-2", "setting": "[1]; Cell conditioned media", "value": "188.22 and 363.72"}, {"measurement": "IL-3", "setting": "[1]; Cell conditioned media", "value": "4,598.86 and 5,260.77"}, {"measurement": "IL-4", "setting": "[1]; Cell conditioned media", "value": "357.72 and 239.04"}, {"measurement": "IL-6", "setting": "[1]; Cell conditioned media", "value": "7,377.28 and 9,527.88"}, {"measurement": "IL-7", "setting": "[1]; Cell conditioned media", "value": "456.98 and 430.27"}, {"measurement": "IL-10", "setting": "[1]; Cell conditioned media", "value": "722.93 and 564.32"}, {"measurement": "IL-16", "setting": "[1]; Cell conditioned media", "value": "259.39 and 214.67"}, {"measurement": "LIGHT", "setting": "[1]; Cell conditioned media", "value": "619.92 and 453.71"}, {"measurement": "Leptin", "setting": "[1]; Cell conditioned media", "value": "2,999.42 and 2,016.38"}, {"measurement": "M-CSF", "setting": "[1]; Cell conditioned media", "value": "529.09 and 269.04"}, {"measurement": "MCP-1", "setting": "[1]; Cell conditioned media", "value": "572.17 and 500.58"}, {"measurement": "MCP-4", "setting": "[1]; Cell conditioned media", "value": "123.61 and 61.87"}, {"measurement": "MIG", "setting": "[1]; Cell conditioned media", "value": "272.50 and 486.52"}, {"measurement": "NAP-2", "setting": "[1]; Cell conditioned media", "value": "97.39 and 110.61"}, {"measurement": "NT-3", "setting": "[1]; Cell conditioned media", "value": "97.39 and 171.55"}, {"measurement": "PDGF-BB", "setting": "[1]; Cell conditioned media", "value": "4,729.96 and 8,521.09"}, {"measurement": "RANTES", "setting": "[1]; Cell conditioned media", "value": "393.31 and 347.78"}, {"measurement": "SCF", "setting": "[1]; Cell conditioned media", "value": "691.09 and 487.46"}, {"measurement": "TGF-beta 1", "setting": "[1]; Cell conditioned media", "value": "752.90 and 740.56"}, {"measurement": "TGF-beta 3", "setting": "[1]; Cell conditioned media", "value": "111.44 and 115.30"}, {"measurement": "TNF-beta", "setting": "[1]; Cell conditioned media", "value": "675.17 and 671.19"}, {"measurement": "bFGF", "setting": "[1]; Cell conditioned media", "value": "7,948.03 and 4,993.83"}, {"measurement": "Amphiregulin", "setting": "[1]; Cell lysate", "value": "17.50 and 15.44"}, {"measurement": "AxI", "setting": "[1]; Cell lysate", "value": "637.50 and 795.83"}, {"measurement": "BDNF", "setting": "[1]; Cell lysate", "value": "167.50 and 167.82"}, {"measurement": "BMP-4", "setting": "[1]; Cell lysate", "value": "247.00 and 273.70"}, {"measurement": "CK beta 8-1", "setting": "[1]; Cell lysate", "value": "1.00 and 1.13"}, {"measurement": "Eotaxin-2", "setting": "[1]; Cell lysate", "value": "262.00 and 336.77"}, {"measurement": "Eotaxin-3", "setting": "[1]; Cell lysate", "value": "184.50 and 284.96"}, {"measurement": "FGF-6", "setting": "[1]; Cell lysate", "value": "629.00 and 379.57"}, {"measurement": "GM-CSF", "setting": "[1]; Cell lysate", "value": "433.00 and 636.37"}, {"measurement": "I-309", "setting": "[1]; Cell lysate", "value": "152.50 and 246.10"}, {"measurement": "IFN-gamma", "setting": "[1]; Cell lysate", "value": "349.00 and 441.52"}, {"measurement": "IGFBP-2", "setting": "[1]; Cell lysate", "value": "3,785.50 and 5,554.45"}, {"measurement": "IGFBP-4", "setting": "[1]; Cell lysate", "value": "5,553.00 and 6,043.27"}, {"measurement": "IL-1alpha", "setting": "[1]; Cell lysate", "value": "1,236.00 and 1,216.99"}, {"measurement": "IL-1beta", "setting": "[1]; Cell lysate", "value": "1.00 and 1.13"}, {"measurement": "IL-1ra", "setting": "[1]; Cell lysate", "value": "33.00 and 25.91"}, {"measurement": "IL-5", "setting": "[1]; Cell lysate", "value": "400.50 and 555.84"}, {"measurement": "IL-6", "setting": "[1]; Cell lysate", "value": "828.50 and 516.98"}, {"measurement": "IL-7", "setting": "[1]; Cell lysate", "value": "190.00 and 313.12"}, {"measurement": "IL-13", "setting": "[1]; Cell lysate", "value": "428.50 and 555.84"}, {"measurement": "IL-15", "setting": "[1]; Cell lysate", "value": "599.50 and 808.13"}, {"measurement": "Leptin", "setting": "[1]; Cell lysate", "value": "900.50 and 617.79"}, {"measurement": "MCP-1", "setting": "[1]; Cell lysate", "value": "242.50 and 282.71"}, {"measurement": "MIG", "setting": "[1]; Cell lysate", "value": "291.00 and 226.39"}, {"measurement": "MIP-1-delta", "setting": "[1]; Cell lysate", "value": "1.50 and 1.13"}, {"measurement": "NT-3", "setting": "[1]; Cell lysate", "value": "1.00 and 1.13"}, {"measurement": "SCF", "setting": "[1]; Cell lysate", "value": "74.50 and 148.67"}, {"measurement": "TGF-beta 1", "setting": "[1]; Cell lysate", "value": "362.00 and 230.33"}, {"measurement": "TNF-alpha", "setting": "[1]; Cell lysate", "value": "431.00 and 579.49"}, {"measurement": "TNF-beta", "setting": "[1]; Cell lysate", "value": "241.00 and 342.40"}, {"measurement": "bFGF", "setting": "[1]; Cell lysate", "value": "59,820.50 and 54,057.29"}, {"measurement": "CXCR4 positive cells (FACS)", "setting": "[2]; day 3, high concentration of Activin A", "value": "32-42%"}, {"measurement": "cells expressing CXCR4 (FACS)", "setting": "[2]; day 5, high concentration of activin A", "value": "28-32%"}, {"measurement": "AFP expression", "setting": "[2]; lower concentration of Activin A, regardless of Wnt3a", "value": "very high"}]}
